Patent publication US20140193802A1, “IDENTIFICATION OF AN ALTERED THERAPEUTIC SUSCEPTIBILITY TO ANTI-HCMV COMPOUNDS AND OF A RESISTANCE AGAINST ANTI-HCMV COMPOUNDS” (priority 2012, published 2014)
Where two headings read alike, the source gives them in different places.

How the values were obtained:
Type in all cases: cell-based, human cytomegalovirus (HCMV)
HCMV strain AD169 = assay: HCMV cytopathic effect reduction assay (CPE-RA); details: Human betaherpesvirus 5, mean ± SD
Method: (§1) HCMV Cytopathic Effect Reduction Assay (CPE-RA)
(§2) CPE-RAs were performed basically as described elsewhere (HCMV replication assay). In brief, the addition of 2 μl test compound of 50, 5, 0.5, 0.05, 0.005, and 0.0005 mM DMSO stock solutions to 100 μl cell culture medium in duplicate was followed by serial 2-fold dilutions in 96-well microtiter plates. Each well was supplemented with 150 μl of either a suspension of 1×10^4 NHDF cells mixed with cell-free HCMV (multiplicity of infection (MOI), 0.03) or a suspension of 1×10^4 to 3×10^4 HCMV-infected and uninfected NHDF cells (MOI, 0.001 to 0.002). Non-infected and non-treated cells served as controls on each plate. Final compound concentrations ranged between 250 and 0.00005 μM. Plates were incubated for 6 to 7 days at 37° C. or until the virus control reached 100% CPE. A mixture containing 20% Giemsa stain (Merck) and 5% formalin solution (Merck) was added to the wells for fixation and staining. After extensive washing, plates were dried at 56° C. followed by visual evaluation using an overhead microscope (plaque magnifier; Tecnorama Zürich). Each assay was performed at least in triplicate, and standard deviations were calculated. The assay plate data were used to calculate the EC50 (CPE-RA), i.e., the concentration of drug that inhibits the CPE by 50% compared with an untreated virus-infected control.

[1] = test system: HCMV AD169 mutant rAIC246-1 (UL56 L241P); assay: CPE-RA, letermovir-selected mutant; details: for EC50: Human betaherpesvirus 5, AD169
Method: as §1, §2
(§3) Drug-resistant HCMV AD169 mutants were selected by the single-step selection method or by serial passage of the virus in the presence of increasing concentration of Letermovir. Briefly, 5×10^3 AD169-infected NHDF cells/well (MOI, 0.03 PFU/cell) were seeded into the wells of 30 96-well microtiter plates. The infection was allowed to proceed under the exposure of 50 nM Letermovir (˜10×EC50) until a CPE developed in one or more of the compound-treated wells (indicative of resistant virus breakthrough). Non-infected and non-treated cells served as controls on each plate. Mutant virus amplification was accomplished after cultures achieved maximum CPE by the passage of cell-free supernatant virus in the presence of 50 nM Letermovir. The resultant Letermovir-resistant progeny virus mutants were plaque purified three times by limiting dilutions in the presence of Letermovir. The stability of resistance was tested by serially passaging plaque-purified viruses without selective pressure (8 to 10 times). The resistant phenotype of the mutants was confirmed by CPE reduction assays.

[2] = test system: HCMV AD169 mutant rAIC246-10 (UL56 V236M); assay: CPE-RA, letermovir-selected mutant; details: for EC50: Human betaherpesvirus 5, AD169, rAIC246-10 (UL56 V236M), CPE reduction assay, mean ± SD
Method: as §1, §2, §3

[3] = test system: HCMV AD169 mutant rAIC246-4 (UL56 V231L); assay: CPE-RA, letermovir-selected mutant; details: for EC50: Human betaherpesvirus 5, AD169, rAIC246-4 (UL56 V231L), CPE reduction assay, mean ± SD
Method: as §1, §2, §3

[4] = test system: HCMV AD169 mutant rAIC246-5 (UL56 R369M); assay: CPE-RA, letermovir-selected mutant; details: for EC50: Human betaherpesvirus 5, AD169, rAIC246-5 (UL56 R369M), CPE reduction assay, mean ± SD
Method: as §1, §2, §3

[5] = test system: HCMV AD169 mutant rAIC246-6 (UL56 R369M); assay: CPE-RA, letermovir-selected mutant; details: for EC50: Human betaherpesvirus 5, AD169, rAIC246-6 (UL56 R369M), CPE reduction assay, mean ± SD
Method: as §1, §2, §3

RV-HG (wt-HCMV) = assay: HCMV fluorescence reduction assay (GFP-RA); details: Human betaherpesvirus 5
Method: (§4) HCMV Fluorescence Reduction Assay (GFP-RA)
(§5) The susceptibilities of recombinant HCMV laboratory strains expressing GFP were determined by a GFP-based fluorescence reduction assay. For standard assays, 1.5×10^4 NHDF cells/well were cultured in black 96-well plates (Greiner Bio-One, Germany) and infected with either HCMV-GFP (MOI, 0.1) or RV-HG (MOI, 0.2 to 0.5). After virus adsorption, the virus inoculum was replaced with 200 μl fresh medium. Thereafter, 100 μl medium containing the test compounds was added to wells of horizontal row G, followed by serial 3-fold dilutions up to row A. All drug concentrations were tested at least in duplicate. Wells of the horizontal row H served as the virus control. Plates were incubated at 37° C. for 7 days. The medium was replaced by 200 μl PBS, and GFP units (GFPU) were determined by a charge-coupled-device-camera-based fluorescence detector (FluoBox; Bayer Technology Services GmbH, Leverkusen, Germany), which captures 96 images simultaneously. Drug effects were calculated as a percentage of reduction in GFPU in the presence of each drug concentration compared to the GFPU determined in the absence of drug. EC50 and EC90 values (drug concentrations producing 50% and 90% reduction in GFPU) were calculated using nonlinear regression curve fit with a variable slope. GraphPad Prism 3.02 or 4.0 software (GraphPad Software Inc., La Jolla, Calif.) was used for all analyses.
(§6) The HCMV AD169-derived bacterial artificial chromosome (BAC) pHG served as the backbone for the construction of the mutant viruses. The markerless introduction of point mutations into pHG was done using a two-step recombination protocol according to the en passant method. Briefly, a recombination fragment containing the I-SceI-AphAI cassette from plasmid pEPKan-S was obtained by PCR using primers containing ˜60 bp of homology to the intended integration site in ORF UL56 of BAC pHG and ˜20 bp specific for pEPKan-S. This fragment was electroporated into Escherichia coli GS1783 that harbored the pHG BAC. […] After successful kanamycin selection, all non-HCMV sequences were removed by an intrabacterial ISceI digest and a subsequent second Red recombination, resulting in the scarless repair of the mutated UL56 gene in the background of BAC pHG. The integrity of the generated BACs was confirmed by restriction enzyme digestion and sequencing. To reconstitute virus mutants, the recombinant BACs were transfected into permissive MRC5 cells. At least two independent virus clones per mutation were generated and evaluated.

RV-HG UL56-C325Yrev = assay: GFP-RA, marker transfer revertant; details: Human betaherpesvirus 5
Method: as §4, §5, §6

| Structure (SMILES) | EC50 (HCMV strain AD169) | EC50 [1] | Resistance index (RI) = letermovir-EC50 mutant virus/letermovir-EC50 wild-type virus ([1]; rAIC246-1 vs AD169) | EC50 [2] | Resistance index (RI) = letermovir-EC50 mutant virus/letermovir-EC50 wild-type virus ([2]; rAIC246-10 vs AD169) | EC50 [3] | Resistance index (RI) = letermovir-EC50 mutant virus/letermovir-EC50 wild-type virus ([3]; rAIC246-4 vs AD169) | EC50 [4] | Resistance index (RI) = letermovir-EC50 mutant virus/letermovir-EC50 wild-type virus ([4]; rAIC246-5 vs AD169) | EC50 [5] | Resistance index (RI) = letermovir-EC50 mutant virus/letermovir-EC50 wild-type virus ([5]; rAIC246-6 vs AD169) | EC50 (RV-HG (wt-HCMV); RV-HG (wt-HCMV), fluorescence reduction assay, mean ± SD, read-out: EC50) | EC50 (RV-HG UL56-C325Yrev; RV-HG UL56-C325Yrev, fluorescence reduction assay, mean ± SD, read-out: EC50) | EC50 (RV-HG (wt-HCMV)) | EC50 (RV-HG UL56-C325Yrev) |
| --- | --- | --- | --- | --- | --- | --- | --- | --- | --- | --- | --- | --- | --- | --- | --- |
| COc1cccc(N2CCN(C3=Nc4c(F)cccc4[C@H](CC(=O)O)N3c3cc(C(F)(F)F)ccc3OC)CC2)c1 [Letermovir, (S)-{8-fluoro-2-[4-(3-methoxyphenyl)-1-piperazinyl]-3-[2-methoxy-5-(trifluoromethyl)phenyl]-3,4-dihydro-4-quinazolinyl}acetic acid] | 0.0056 ± 0.0016 µM | 1.24 ± 0.36 µM | 221 | 0.07 ± 0.02 µM | 13 | 0.13 ± 0.01 µM | 23 | 0.11 ± 0.01 µM | 19 | 0.08 ± 0.02 µM | 14 | 0.003 ± 0.0012 µM | 0.0039 ± 0.0009 µM |  |  |
| Nc1nc(O)c2ncn(COC(CO)CO)c2n1 [Ganciclovir] | 3.4 ± 1.5 µM | 1.2 ± 0.2 µM |  | 1.7 ± 0.3 µM |  | 4.2 ± 1.3 µM |  | 5 ± 0.4 µM |  | 2.9 ± 0.9 µM |  |  |  | 2.21 ± 0.99 µM | 2.83 ± 0.81 µM |
